Where a SMILES comes first, the peptide text is derived from it. Bridges are numbered along the chain shown (N, C = ends). [ ]: non-standard residue; d: D form. The star is where a group is joined. ξ: configuration not given here. 3Pal = N[C@@H](Cc1cccnc1)C(=O)O; Myristoyl = CCCCCCCCCCCCCC(=O)*; pGlu = O=C1CC[C@@H](C(=O)O)N1; d(hCys) = N[C@H](CCS)C(=O)O; hCys = N[C@@H](CCS)C(=O)O; Nle = CCCC[C@H](N)C(=O)O; AEEA = NCCOCCOCC(=O)O; ξPip = O=C(O)C1CCCCN1
Assay: in vitro
Details: rat, not told, Surrogate activity-based Plasma stability t½

half-life [h]	SMILES
13	CCCC[C@@H]1NC(=O)[C@@H]2CCCN2C(=O)CNC(=O)[C@H](CCCCN)NC(=O)[C@H](Cc2c[nH]cn2)NC(=O)[C@@H](NC(=O)[C@H](CC(C)C)NC(=O)[C@H](CCCNC(=N)N)NC(=O)[C@@H]2CCCN2C(=O)[C@H](CCCNC(=N)N)NC(=O)[C@@H]2CCC(=O)N2)CCSSCC[C@@H](C(=O)N[C@@H](Cc2ccccc2)C(=O)O)NC1=O [Example 52, pE-R-P-R-L-hC-H-K-G-P-Nle-hC-F-OH] ([pGlu]RPRL[hCys]HKGP[Nle][hCys]F-OH; disulfide 6-12)
> 16.7	CCCC[C@@H]1NC(=O)[C@@H]2CCCN2C(=O)CNC(=O)[C@H](CCCCN)NC(=O)[C@H](Cc2c[nH]cn2)NC(=O)[C@H](NC(=O)[C@H](CC(C)C)NC(=O)[C@H](CCCNC(=N)N)NC(=O)[C@@H]2CCCN2C(=O)[C@H](CCCNC(=N)N)NC(=O)[C@@H]2CCC(=O)N2)CSSC[C@@H](C(=O)N[C@@H](Cc2ccccc2)C(=O)O)NC1=O [Example 53, pE-R-P-R-L-c-H-K-G-P-Nle-C-F-OH] ([pGlu]RPRL[dC]HKGP[Nle]CF-OH; disulfide 6-12)
> 16.7	CCCC[C@@H]1NC(=O)[C@@H]2CCCN2C(=O)CNC(=O)[C@H](CCCCN)NC(=O)[C@H](Cc2c[nH]cn2)NC(=O)[C@@H](NC(=O)[C@H](CC(C)C)NC(=O)[C@H](CCCNC(=N)N)NC(=O)[C@@H]2CCCN2C(=O)[C@H](CCCNC(=N)N)NC(=O)[C@@H]2CCC(=O)N2)CSSCC[C@H](C(=O)N[C@@H](Cc2ccccc2)C(=O)O)NC1=O [Example 54, pE-R-P-R-L-C-H-K-G-P-Nle-(D-hC)-F-OH] ([pGlu]RPRLCHKGP[Nle][d(hCys)]F-OH; disulfide 6-12)
> 16.7	CCCC[C@@H]1NC(=O)[C@@H]2CCCN2C(=O)CNC(=O)[C@H](CCCCN)NC(=O)[C@H](Cc2c[nH]cn2)NC(=O)[C@H](NC(=O)[C@H](CC(C)C)NC(=O)[C@H](CCCNC(=N)N)NC(=O)[C@@H]2CCCN2C(=O)[C@H](CCCNC(=N)N)NC(=O)[C@@H]2CCC(=O)N2)CCSSCC[C@H](C(=O)N[C@@H](Cc2ccccc2)C(=O)O)NC1=O [Example 55, pE-R-P-R-L-(D-hC)-H-K-G-P-Nle-(D-hC)-F-OH] ([pGlu]RPRL[d(hCys)]HKGP[Nle][d(hCys)]F-OH; disulfide 6-12)
> 16.7	CCCC[C@@H]1NC(=O)[C@@H]2CCCN2C(=O)CNC(=O)[C@H](CCCCN)NC(=O)[C@H](Cc2c[nH]cn2)NC(=O)[C@@H](NC(=O)[C@H](CC(C)C)NC(=O)[C@H](CCCNC(=N)N)NC(=O)[C@@H]2CCCN2C(=O)[C@H](CCCNC(=N)N)NC(=O)[C@@H]2CCC(=O)N2)CSSC[C@H](C(=O)N[C@@H](Cc2ccccc2)C(=O)O)NC1=O [Example 56, pE-R-P-R-L-C-H-K-G-P-Nle-c-F-OH] ([pGlu]RPRLCHKGP[Nle][dC]F-OH; disulfide 6-12)
> 16.7	CCCC[C@@H]1NC(=O)[C@@H]2CCCN2C(=O)CNC(=O)[C@H](CCCCN)NC(=O)[C@H](Cc2c[nH]cn2)NC(=O)[C@H](NC(=O)[C@H](CC(C)C)NC(=O)[C@H](CCCNC(=N)N)NC(=O)[C@@H]2CCCN2C(=O)[C@H](CCCNC(=N)N)NC(=O)[C@@H]2CCC(=O)N2)CSSC[C@H](C(=O)N[C@@H](Cc2ccccc2)C(=O)O)NC1=O [Example 57, pE-R-P-R-L-c-H-K-G-P-Nle-c-F-OH] ([pGlu]RPRL[dC]HKGP[Nle][dC]F-OH; disulfide 6-12)
> 16.7	CCCCCCCCCCCCCC(=O)NCCOCCOCC(=O)NCCOCCOCC(=O)N[C@@H](CCC(N)=O)C(=O)N[C@@H](CCCNC(=N)N)C(=O)N1CCC[C@H]1C(=O)N[C@@H](CCCNC(=N)N)C(=O)N[C@@H](CC(C)C)C(=O)N[C@H]1CSSC[C@@H](C(=O)N[C@H](Cc2ccccc2)C(=O)O)NC(=O)[C@H](CCCC)NC(=O)[C@@H]2CCCN2C(=O)CNC(=O)[C@H](CCCCN)NC(=O)[C@H](Cc2c[nH]cn2)NC1=O [Example 58, Myristoyl-O2Oc-O2Oc-Q-R-P-R-L-C-H-K-G-P-Nle-C-f-OH] ({Myristoyl-AEEA-AEEA}-QRPRLCHKGP[Nle]C[dF]-OH; disulfide 6-12)
> 16.7	CCCCCCCCCCCCCC(=O)NCCOCCOCC(=O)NCCOCCOCC(=O)NCCOCCOCC(=O)N[C@@H](CCC(N)=O)C(=O)N[C@@H](CCCNC(=N)N)C(=O)N1CCC[C@H]1C(=O)N[C@@H](CCCNC(=N)N)C(=O)N[C@@H](CC(C)C)C(=O)N[C@H]1CSSC[C@@H](C(=O)N[C@H](Cc2ccccc2)C(=O)O)NC(=O)[C@H](CCCC)NC(=O)[C@@H]2CCCN2C(=O)CNC(=O)[C@H](CCCCN)NC(=O)[C@H](Cc2c[nH]cn2)NC1=O [Example 59, Myristoyl-O2Oc-O2Oc-O2Oc-Q-R-P-R-L-C-H-K-G-P-Nle-C-f-OH] ({Myristoyl-AEEA-AEEA-AEEA}-QRPRLCHKGP[Nle]C[dF]-OH; disulfide 6-12)
> 16.7	CCCCCCCCCCCCCC(=O)NCCOCCOCC(=O)NCCOCCOCC(=O)NCCOCCOCC(=O)NCCOCCOCC(=O)N[C@@H](CCC(N)=O)C(=O)N[C@@H](CCCNC(=N)N)C(=O)N1CCC[C@H]1C(=O)N[C@@H](CCCNC(=N)N)C(=O)N[C@@H](CC(C)C)C(=O)N[C@H]1CSSC[C@@H](C(=O)N[C@H](Cc2ccccc2)C(=O)O)NC(=O)[C@H](CCCC)NC(=O)[C@@H]2CCCN2C(=O)CNC(=O)[C@H](CCCCN)NC(=O)[C@H](Cc2c[nH]cn2)NC1=O [Example 60, Myristoyl-O2Oc-O2Oc-O2Oc-O2Oc-Q-R-P-R-L-C-H-K-G-P-Nle-C-f-OH] ({Myristoyl-AEEA-AEEA-AEEA-AEEA}-QRPRLCHKGP[Nle]C[dF]-OH; disulfide 6-12)
4.33	CCCCCCCCCCCCCC(=O)NCCCC[C@@H]1NC(=O)[C@H](Cc2c[nH]cn2)NC(=O)[C@@H](NC(=O)[C@H](CC(C)C)NC(=O)[C@H](CCCNC(=N)N)NC(=O)[C@@H]2CCCN2C(=O)[C@H](CCCNC(=N)N)NC(=O)[C@@H]2CCC(=O)N2)CSSC[C@@H](C(=O)N[C@@H](Cc2ccccc2)C(=O)O)NC(=O)[C@H](CCCC)NC(=O)[C@@H]2CCCN2C(=O)CNC1=O [Example 61, pE-R-P-R-L-C-H-K(Myristoyl)-G-P-Nle-C-F-OH] ([pGlu]RPRLCHK(Myristoyl)GP[Nle]CF-OH; disulfide 6-12)
> 16.7	CCCC[C@@H]1NC(=O)[C@@H]2CCCN2C(=O)CNC(=O)[C@H](CCCCN)NC(=O)[C@H](Cc2c[nH]cn2)NC(=O)[C@@H](NC(=O)[C@H](CC(C)C)NC(=O)[C@H](CCCNC(=N)N)NC(=O)[C@@H]2CCCN2C(=O)[C@H](CCCNC(=N)N)NC(=O)[C@@H]2CCC(=O)N2)CSSC[C@@H](C(=O)N[C@@H](Cc2ccccc2)C(N)=O)NC1=O [Example 62, pE-R-P-R-L-C-H-K-G-P-Nle-C-F-NH2] ([pGlu]RPRLCHKGP[Nle]CF-NH2; disulfide 6-12)

More lines, now with the values behind:

SMILES	half-life [h]
CCCC[C@@H]1NC(=O)[C@@H]2CCCN2C(=O)[C@H](CCCNC(=N)N)NC(=O)[C@H](CCCCN)NC(=O)[C@H](Cc2c[nH]cn2)NC(=O)[C@@H](NC(=O)[C@H](CC(C)C)NC(=O)[C@H](CCCNC(=N)N)NC(=O)[C@@H]2CCCN2C(=O)[C@H](CCCNC(=N)N)NC(=O)[C@@H]2CCC(=O)N2)CSSC[C@@H](C(=O)N[C@@H](Cc2ccccc2)C(=O)O)NC1=O [Example 45, pE-R-P-R-L-C-H-K-R-P-Nle-C-F-OH] ([pGlu]RPRLCHKRP[Nle]CF-OH; disulfide 6-12)	2.79
CCCC[C@@H]1NC(=O)C2CCCCN2C(=O)CNC(=O)[C@H](CCCCN)NC(=O)[C@H](Cc2c[nH]cn2)NC(=O)[C@@H](NC(=O)[C@H](CC(C)C)NC(=O)[C@H](CCCNC(=N)N)NC(=O)[C@@H]2CCCN2C(=O)[C@H](CCCNC(=N)N)NC(=O)[C@@H]2CCC(=O)N2)CSSC[C@@H](C(=O)N[C@@H](Cc2ccccc2)C(=O)O)NC1=O (stereo partly drawn) [Example 46, pE-R-P-R-L-C-H-K-G-(Pipecolic acid)-Nle-C-F-OH] ([pGlu]RPRLCHKG[ξPip][Nle]CF-OH; disulfide 6-12)	8.37
CC(C)C[C@H](NC(=O)[C@H](CCCNC(=N)N)NC(=O)[C@@H]1CCCN1C(=O)[C@H](CCCNC(=N)N)NC(=O)[C@@H]1CCC(=O)N1)C(=O)N[C@H]1CSSC[C@@H](C(=O)N[C@@H](Cc2ccccc2)C(=O)O)NC(=O)[C@H](Cc2cccnc2)NC(=O)[C@@H]2CCCN2C(=O)CNC(=O)[C@H](CCCCN)NC(=O)[C@H](Cc2c[nH]cn2)NC1=O [Example 47, pE-R-P-R-L-C-H-K-G-P-(3-PyA)-C-F-OH] ([pGlu]RPRLCHKGP[3Pal]CF-OH; disulfide 6-12)	6.98
CCCC[C@@H]1NC(=O)[C@@H]2CCCN2C(=O)CNC(=O)[C@H](CCCCN)NC(=O)[C@H](Cc2c[nH]cn2)NC(=O)[C@@H](NC(=O)[C@H](CC(C)C)NC(=O)[C@H](CCCNC(=N)N)NC(=O)[C@@H]2CCCN2C(=O)[C@H](CCCNC(=N)N)NC(=O)[C@@H]2CCC(=O)N2)CSSC[C@@H](C(=O)N[C@@H](Cc2c[nH]cn2)C(=O)O)NC1=O [Example 48, pE-R-P-R-L-C-H-K-G-P-Nle-C-H-OH] ([pGlu]RPRLCHKGP[Nle]CH-OH; disulfide 6-12)	9.11
CCCC[C@@H]1NC(=O)[C@@H]2CCCN2C(=O)CNC(=O)[C@H](CCCCN)NC(=O)[C@H](Cc2c[nH]cn2)NC(=O)[C@@H](NC(=O)[C@H](CC(C)C)NC(=O)[C@H](CCCNC(=N)N)NC(=O)[C@@H]2CCCN2C(=O)[C@H](CCCNC(=N)N)NC(=O)[C@@H]2CCC(=O)N2)CSSC[C@@H](C(=O)N[C@@H](CCC(=O)O)C(=O)O)NC1=O [Example 49, pE-R-P-R-L-C-H-K-G-P-Nle-C-E-OH] ([pGlu]RPRLCHKGP[Nle]CE-OH; disulfide 6-12)	> 16.7
CCCC[C@@H]1NC(=O)[C@@H]2CCCN2C(=O)CNC(=O)[C@H](CCCCN)NC(=O)[C@H](Cc2c[nH]cn2)NC(=O)[C@@H](NC(=O)[C@H](CC(C)C)NC(=O)[C@H](CCCNC(=N)N)NC(=O)[C@@H]2CCCN2C(=O)[C@H](CCCNC(=N)N)NC(=O)[C@@H]2CCC(=O)N2)CSSC[C@@H](C(=O)O)NC1=O [Example 50, pE-R-P-R-L-C-H-K-G-P-Nle-C-OH] ([pGlu]RPRLCHKGP[Nle]C-OH; disulfide 6-12)	> 16.7
CCCC[C@@H]1NC(=O)[C@@H]2CCCN2C(=O)CNC(=O)[C@H](CCCCN)NC(=O)[C@H](Cc2c[nH]cn2)NC(=O)[C@@H](NC(=O)[C@H](CC(C)C)NC(=O)[C@H](CCCNC(=N)N)NC(=O)[C@@H]2CCCN2C(=O)[C@H](CCCNC(=N)N)NC(=O)[C@@H]2CCC(=O)N2)CSSCC[C@@H](C(=O)N[C@@H](Cc2ccccc2)C(=O)O)NC1=O [Example 51, pE-R-P-R-L-C-H-K-G-P-Nle-hC-F-OH] ([pGlu]RPRLCHKGP[Nle][hCys]F-OH; disulfide 6-12)	10.9

— patent US9982017B2, “Synthetic apelin mimetics for the treatment of heart failure” (priority 2012, dated 2018)
